Active and inactive are the calls of the source.
How the values were obtained:
[1] = target: T1, Histone-lysine N-methyltransferase NSD2 (Homo sapiens, UniProt O96028); type: biochemical
T1 sequence (O96028 whole entry): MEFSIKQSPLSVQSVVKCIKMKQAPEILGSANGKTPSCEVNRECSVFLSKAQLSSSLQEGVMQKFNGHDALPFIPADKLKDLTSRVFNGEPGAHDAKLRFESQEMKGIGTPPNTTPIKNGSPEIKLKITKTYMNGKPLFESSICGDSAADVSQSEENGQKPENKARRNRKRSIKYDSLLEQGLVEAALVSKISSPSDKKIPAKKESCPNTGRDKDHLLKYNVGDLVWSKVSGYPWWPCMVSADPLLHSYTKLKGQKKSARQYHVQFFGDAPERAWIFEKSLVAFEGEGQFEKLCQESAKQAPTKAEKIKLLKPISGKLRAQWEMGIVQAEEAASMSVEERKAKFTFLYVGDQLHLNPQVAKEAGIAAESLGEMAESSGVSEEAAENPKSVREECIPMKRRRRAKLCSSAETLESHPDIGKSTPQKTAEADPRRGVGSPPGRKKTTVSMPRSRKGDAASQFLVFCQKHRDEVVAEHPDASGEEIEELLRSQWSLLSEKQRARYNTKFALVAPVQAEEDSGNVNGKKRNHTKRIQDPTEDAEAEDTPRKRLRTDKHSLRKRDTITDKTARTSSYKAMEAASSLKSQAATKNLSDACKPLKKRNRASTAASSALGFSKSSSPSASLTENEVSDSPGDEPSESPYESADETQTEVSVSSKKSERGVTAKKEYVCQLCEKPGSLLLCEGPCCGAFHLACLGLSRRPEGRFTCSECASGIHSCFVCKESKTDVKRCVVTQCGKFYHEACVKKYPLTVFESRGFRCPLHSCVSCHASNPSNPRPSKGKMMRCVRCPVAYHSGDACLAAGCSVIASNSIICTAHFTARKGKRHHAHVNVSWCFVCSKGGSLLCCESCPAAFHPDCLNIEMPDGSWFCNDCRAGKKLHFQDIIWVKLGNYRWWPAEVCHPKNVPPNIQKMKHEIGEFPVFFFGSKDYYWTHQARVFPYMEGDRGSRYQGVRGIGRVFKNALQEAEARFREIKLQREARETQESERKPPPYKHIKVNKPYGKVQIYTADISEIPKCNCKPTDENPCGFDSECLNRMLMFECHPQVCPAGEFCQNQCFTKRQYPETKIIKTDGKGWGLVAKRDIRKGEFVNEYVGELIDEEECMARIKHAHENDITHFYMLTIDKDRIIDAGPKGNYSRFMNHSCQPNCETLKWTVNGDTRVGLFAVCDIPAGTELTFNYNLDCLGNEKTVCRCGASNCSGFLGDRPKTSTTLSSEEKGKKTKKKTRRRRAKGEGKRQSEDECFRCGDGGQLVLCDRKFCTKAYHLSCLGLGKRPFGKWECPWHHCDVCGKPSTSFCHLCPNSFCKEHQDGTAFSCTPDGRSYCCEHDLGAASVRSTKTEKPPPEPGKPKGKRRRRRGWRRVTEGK

[2] = inhibitors of firefly luciferase expression or activity, dose response, H4 neuroglioma cells, luminescence (AID 1990); type: functional, cell-based
[3] = system: Streptococcus sp. 'group A'; experiment: growth inhibition of control SK(-) GAS strain, dose response, counter-screen for streptokinase expression inhibitor project, luminescence, kanamycin, BacTiterGlo, confirmation (AID 1900); type: functional, organism-based
[4] = Luminescence Cell-Based Dose Response HTS to Identify Inhibitors of 5'UTR Stem-Loop Driven Prion Protein mRNA Translation in H4 Neuroglioblastoma Cells. [Related pubchem assays: 1827 (Project Summary), 1813 (Primary HTS)]; type: functional
[5] = inhibitors of SNCA 5'UTR-driven reporter translation, confirmation, H4 neuroglioma cells, luminescence (AID 1988); type: functional, cell-based
INS1 = experiment: beta cell apoptosis inhibitors, cytokine rescue, dose response, luminescence, retest (AID 449756); type: functional, cell-based; settings: Rattus norvegicus;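 note: cell death triggered by IL-1 beta plus TNF-alpha plus IFN-gamma mixture; protective hits raise ATP signal compared with cytokine alone wells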
[6] = target: T2, Heat shock factor protein 1 (Mus musculus, UniProt P38532); experiment: HSF1 potentiators in luciferase reporter cells, confirmation, cell-based, NIH3T3, luminescence, dose retest (AID 435004); type: functional;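 note: stress induced by proteasome inhibitor MG132 added 30 min after compound; luciferase reporter driven by HSF1 response element in NIH3T3 cells; actives raise luminescence as potentiators of the MG132 stress response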
T2 sequence (P38532 whole entry): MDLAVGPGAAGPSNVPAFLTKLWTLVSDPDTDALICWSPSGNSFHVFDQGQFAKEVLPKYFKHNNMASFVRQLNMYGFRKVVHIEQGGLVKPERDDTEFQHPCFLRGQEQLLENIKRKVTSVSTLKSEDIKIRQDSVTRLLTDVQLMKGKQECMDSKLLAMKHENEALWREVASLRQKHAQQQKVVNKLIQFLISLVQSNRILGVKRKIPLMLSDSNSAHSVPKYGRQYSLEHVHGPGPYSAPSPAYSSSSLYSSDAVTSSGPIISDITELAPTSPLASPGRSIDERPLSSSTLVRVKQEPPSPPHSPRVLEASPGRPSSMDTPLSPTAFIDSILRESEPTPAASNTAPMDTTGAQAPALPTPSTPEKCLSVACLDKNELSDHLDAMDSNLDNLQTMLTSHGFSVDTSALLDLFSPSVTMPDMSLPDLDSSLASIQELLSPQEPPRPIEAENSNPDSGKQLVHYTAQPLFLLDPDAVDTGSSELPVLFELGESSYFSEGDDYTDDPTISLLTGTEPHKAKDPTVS

[7] = target: Dual specificity tyrosine-phosphorylation-regulated kinase 1A (Rattus norvegicus, UniProt Q63470); type: biochemical, Homo sapiens
[8] = target: T3, Long-chain-fatty-acid--AMP ligase FadD28 (Mycobacterium tuberculosis, UniProt P9WQ59); experiment: Fluorescence polarization aasay to screen for inhibitors that compete for the binding of FadD28 to a bisubstrate Measured in Biochemical System Using Plate Reader - 2147-01_Inhibitor_Dose_CherryPick_Activity.; type: functional, Mycobacterium tuberculosis H37Rv
T3 sequence (P9WQ59 whole entry): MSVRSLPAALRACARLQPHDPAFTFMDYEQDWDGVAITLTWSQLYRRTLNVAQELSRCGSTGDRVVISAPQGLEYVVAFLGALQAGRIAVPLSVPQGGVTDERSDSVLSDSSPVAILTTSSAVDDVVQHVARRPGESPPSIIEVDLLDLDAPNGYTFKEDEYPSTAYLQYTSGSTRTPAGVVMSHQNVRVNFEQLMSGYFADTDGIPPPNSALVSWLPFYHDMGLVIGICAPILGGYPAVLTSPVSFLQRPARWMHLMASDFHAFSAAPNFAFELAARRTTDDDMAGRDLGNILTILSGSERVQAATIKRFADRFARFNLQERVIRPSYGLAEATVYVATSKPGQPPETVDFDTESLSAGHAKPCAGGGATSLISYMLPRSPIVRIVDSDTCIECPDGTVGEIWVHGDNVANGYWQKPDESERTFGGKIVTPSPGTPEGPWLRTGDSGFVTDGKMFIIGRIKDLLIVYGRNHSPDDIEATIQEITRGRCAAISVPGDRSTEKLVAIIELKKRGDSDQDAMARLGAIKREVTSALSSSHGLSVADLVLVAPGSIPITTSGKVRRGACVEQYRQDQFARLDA

Row | SMILES | AC50 [1] | EC50 [2] | EC50 [3] | EC50 [4] | EC50 [5] | AC50 (INS1) | EC50 [6] | AC50 [7] | AC50 [8]
1 | COc1ccc(NC(=S)Nc2ccc3nsnc3c2)cc1 | 3.57 µM (active) | – | – | – | – | – | – | – | –
2 | CC(C)(C)c1cc[n+](C2=C([N-]S(=O)(=O)c3ccccc3)C(=O)c3ccccc3C2=O)cc1 | 2.63 µM (active) | > 120 µM (not active) | 4.89 µM (active) | 25 µM (active) | 9.04 µM (active) | 14.5 µM (active) | – | – | –
3 | O=C1C=C(Nc2ccccc2C(=O)O)c2ccccc2C1=O | – | – | – | – | – | – | 133 µM (active) | 6.25 µM (active) | > 100 µM (inactive)

From ChEMBL document CHEMBL1201862, “PubChem BioAssay data set” (2004)
